Experimental data published in patent US12508280B2, “Formulations for improving gut health” (DSM IP ASSETS B.V., priority 2018, dated 2025).

What was measured:
Bifidobacterium = assay: Microbiome composition by shotgun sequencing: Bifidobacterium (first set); assay type: cell-based, human; conditions: after 24 h fermentation, vs corresponding control
Procedure: (§1) Since ethanol is known to have antimicrobial effects, two blanks for each type of stock solution were included. As a source of the microbial community, a freshly prepared fecal suspension from the selected donor was added to the reactors. […] All tests, except the blanks, were performed in single repetition, resulting in 40 independent incubations, as specified in Table 1. Incubation conditions of the pre-screening experiment and the final experiment were 48 h at 37° C., under shaking (90 rpm) and anaerobic conditions. DNA were extracted from effluent samples collected from each fermentation flask before (0 h fermentation) and after fermentation (24 h fermentation) and use for microbiome composition analysis by Shotgun sequencing. Effluent samples were collected from each fermentation flask before (0 h fermentation) and after fermentation (48 h fermentation), sterilized by filtering through 0.22 μm filters and used for short chain fatty acids (SCFA), quantification of immunological biomarkers and in vitro analysis in cell culture systems.
(§2) For the first set of in vitro experiments, total DNA was extracted from all samples collected throughout the study using the QIAamp DNA stool minikit (Qiagen, Crawley, United Kingdom) according to the manufacturer's instructions, apart from addition of a bead-beating step and increasing the lysis temperature to 95° C. as described previously (McCormack et al., 2018).
(§3) After DNA isolation, DNA was quantified using the Qubit High Sensitivity DNA assay (Thermo Fisher). Whole metagenome libraries were then prepared using the Illumina Nextera XT kit (Illumina) in accordance with the manufacturer's instructions, with the following modifications: Firstly, tagmentation time was increased to 7 min and secondly, following incorporation of indices and Ampure purification of the products, the samples were each individually sized by running on an Agilent High Sensitivity Chip (Agilent) and quantified using the Qubit High Sensitivity DNA assay (Thermo Fisher) in accordance with Teagasc Sequencing Platform SOPs. The samples were then pooled equimolarly and sequenced on the Illumina NextSeq 500 with a NextSeq 500/550 v2 high-output reagent kit (300 cycles). All sequencing was done in the Teagasc sequencing facility in accordance with standard Illumina sequencing protocols.
(§4) Delivered raw FASTQ sequence files were quality checked as follows: poor quality and duplicate read removal, as well as trimming was implemented using a combination of SAM and Picard tools. Taxonomy was assigned to the reads using the Kraken software and functional analysis was performed with Super focus.

[1] = tested on: Co-cultures of Caco-2 and HT29-MTX-E12 cells; assay: Barrier integrity, leaky gut model, apical stressor Rhamnolipids; assay type: cell-based; conditions: vs corresponding control; for Lucifer yellow, apical induction of leaky gut cellular model: 48 h fermentation samples; for TEER, apical induction of leaky gut cellular model: 48 h minus 0 h fermentation samples
[2] = tested on: genes involved in Acetyl-CoA fermentation to Butyrate pathway; assay: Shotgun sequencing functional analysis: butyrate pathway genes (first set); assay type: cell-based, human; conditions: after 24 h fermentation, vs corresponding control
Procedure: as §1, §2, §3, §4

[3] = tested on: fecal microbial community; assay: Microbiome composition by shotgun sequencing: alpha diversity (first set); assay type: cell-based, human; conditions: after 24 h fermentation, vs corresponding control
Procedure: as §1, §2, §3, §4

HT29 cells = assay: HT29 cell culture, quantification of immunological biomarkers; assay type: cell-based; conditions: effluent from 24 h fermentation, vs corresponding control
Procedure: as §1, with “([…]), […]” for “(0 h fermentation) and after fermentation (48 h fermentation), sterilized by filtering through 0.22 μm filters and used for short chain fatty acids (SCFA), quantification of immunological biomarkers and in vitro analysis in”
For both sets of in vitro experiments, HT29 cells were obtained from American Type Culture Collection (Manassas, VA). Cells were cultured in DMEM supplemented with 10% fetal bovine serum (FBS), 50 units/ml penicillin, 50 μg/ml streptomycin, L-glutamine, and nonessential amino acids (Life Technologies Europe B.V., Zug, Switzerland). Cells were seeded into 12-well plates at 8×10^5 cells per well and used after 2 days of preculture. They were starved in DMEM containing 0.25% FBS for 18 h before treatment. Cells were treated for 24 hours with TNF-α at 100 ng/mL or fermentation supernatants which were sterile filtered and diluted 1:20 in DMEM containing 0.25% FBS. All treatments were done in triplicate. Consequently, cytokines, chemokines and interleukins were quantified in HT29 supernatants using the Luminex Technology (LiquiChip Workstation IS 200, Qiagen, Hilden, Germany) with Bio-Plex Pro Human Cytokine Panel kits (Bio-Rad, Hercules, CA) or with Luminex Screening Assay kits (R&D Systems, Inc., Minneapolis, MN), following the manufacturer's instructions. The data were acquired with the Luminex IS 2.3 software and evaluated with the LiquiChip Analyser software (Qiagen, Hilden, Germany).

[4] = tested on: fecal suspension from the selected donor; assay: Intestinal batch fermentation, SCFA production (first set); assay type: cell-based, human; conditions: after 48 h fermentation, vs corresponding control
Procedure: In a first set of in vitro experiments at the start of intestinal batch fermentation incubation, all test ingredients were added from stock solutions to the modified nutritional medium, containing (g/l): 2.5 K2HPO4, 10.9 KH2PO4, 2 NaHCO3, 2 yeast extract, 2 peptone, 1 mucin, 0.5 cysteine, 2 Tween 80, 2 glucose, 2 starch, 2 cellobiose, 0.1 NaCl, 0.01 MgSO4·7H2O, 0.01 CaCl2·6H2O, 0.05 hemin, 0.5 bile salts.
The other compounds were prepared in ethanol: • Vitamin K1 (VK1), • MEG-3 0080 EE Oil (MEG-3 0080 EE), • MEG-3 4535 EE Oil (MEG-3 4535 EE), • MEG-3 8000 EE Oil (MEG-3 8000 EE).
as §1
Short chain fatty acids (SCFA) are an assessment of the microbial carbohydrate metabolism (acetate, propionate and butyrate) or protein metabolism (branched SCFA) and can be compared to typical fermentation patterns for normal GI microbiota. Samples for SCFA analysis were analyzed after 0, 6, 24 and 48 h of incubation for both set of in vitro experiments, above.
SCFA were extracted from the samples with diethyl ether, after the addition of 2-methyl hexanoic acid as an internal standard. Extracts were analysed using a GC-2014 gas chromatograph (Shimadzu's-Hertogenbosch, the Nether-lands), equipped with a capillary fatty acid-free EC-1000Econo-Cap column (dimensions: […]×0.53 mm, film thickness […]; Alltech, Laarne, Belgium), a flame ionization detector and a split injector. The injection volume was […] and the temperature profile was set from 110 to 160° C., with a temperature increase of 6° C. min-1. The carrier gas was nitrogen and the temperature of the injector and detector were […] and 220° C., respectively. The production of unbranched and branched SCFA was calculated by summing the molar concentrations of acetate, propionate, butyrate, valerate and caproate, and summing isobutyrate, isovalerate and isocaproate molar concentrations, respectively. The total SCFA production was defined as the sum of unbranched and branched SCFA.

SMILES | Bifidobacterium relative abundance (Bifidobacterium; 0.2× dose) | relative abundance of genes involved in Acetyl-CoA fermentation to Butyrate pathway ([2]; 0.2× dose) | relative abundance of genes involved in Acetyl-CoA fermentation to Butyrate pathway ([2]; 1× dose) | relative abundance of genes involved in Acetyl-CoA fermentation to Butyrate pathway ([2]; 5× dose) | microbiome alpha diversity (Shannon diversity index) ([3]; 0.2× dose) | microbiome alpha diversity (Shannon diversity index) ([3]; 1× dose) | microbiome alpha diversity (Shannon diversity index) ([3]; 5× dose) | IL-8 production by HT29 cells (HT29 cells; 0.2× dose) | MIP3A-CCL20 production by HT29 cells (HT29 cells; 0.2× dose) | MIP3A-CCL20 production by HT29 cells (HT29 cells; 1× dose) | MIP3A-CCL20 production by HT29 cells (HT29 cells; 5× dose) | butyrate production ([4]; 0.2× dose) | propionate production ([4]; 0.2× dose) | total SCFAs production ([4]; 0.2× dose) | acetate production ([4]; 1× dose) | butyrate production ([4]; 1× dose) | propionate production ([4]; 1× dose) | butyrate production ([4]; 5× dose) | propionate production ([4]; 5× dose) | total SCFAs production ([4]; 5× dose) | also measured
CC1=C(C/C=C(\C)CCC[C@H](C)CCC[C@H](C)CCCC(C)C)C(=O)c2ccccc2C1=O [Vitamin K1] | increase Bifidobacterium relative abundance | increase relative abundance | increase relative abundance | increase relative abundance | increase microbiome diversity | increase microbiome diversity | increase microbiome diversity | increase IL-8 production | increase MIP3A-CCL20 production | increase MIP3A-CCL20 production | increase MIP3A-CCL20 production | increase butyrate production | increase propionate production | increase total SCFAs production | increase acetate production | increase butyrate production | increase propionate production | increase butyrate production | increase propionate production | increase total SCFAs production | Lucifer yellow, apical induction of leaky gut cellular model ([1]; 0.2× dose): decrease Lucifer yellow; acetate production ([4]; 0.2× dose): increase acetate production; total SCFAs production ([4]; 1× dose): increase total SCFAs production; acetate production ([4]; 5× dose): increase acetate production
Nc1nc2ncc(CNc3ccc(C(=O)N[C@@H](CCC(=O)O)C(=O)O)cc3)nc2c(=O)[nH]1 [folic acid, Folic acid] | increase Bifidobacterium relative abundance | increase relative abundance | – | – | increase microbiome diversity | increase microbiome diversity | – | increase IL-8 production | – | – | – | increase butyrate production | increase propionate production | increase total SCFAs production | increase acetate production | increase butyrate production | increase propionate production | increase butyrate production | increase propionate production | increase total SCFAs production | Bifidobacterium relative abundance (Bifidobacterium; 1× dose): increase Bifidobacterium relative abundance; TEER, apical induction of leaky gut cellular model ([1]; 0.2× dose): increase TEER; TEER, apical induction of leaky gut cellular model ([1]; 1× dose): increase TEER; IL-8 production by HT29 cells (HT29 cells; 5× dose): increase IL-8 production; acetate production ([4]; 0.2× dose): increase acetate production; total SCFAs production ([4]; 1× dose): increase total SCFAs production; acetate production ([4]; 5× dose): increase acetate production
CC(=O)OC/C=C(C)/C=C/C=C(C)/C=C/C1=C(C)CCCC1(C)C [Vitamin A] | – | – | increase relative abundance | increase relative abundance | – | increase microbiome diversity | increase microbiome diversity | increase IL-8 production | increase MIP3A-CCL20 production | increase MIP3A-CCL20 production | increase MIP3A-CCL20 production | increase butyrate production | increase propionate production | increase total SCFAs production | increase acetate production | increase butyrate production | increase propionate production | increase butyrate production | increase propionate production | increase total SCFAs production | Bifidobacterium relative abundance (Bifidobacterium; 1× dose): increase Bifidobacterium relative abundance; TEER, apical induction of leaky gut cellular model ([1]; 0.2× dose): increase TEER; Lucifer yellow, apical induction of leaky gut cellular model ([1]; 1× dose): decrease Lucifer yellow; TEER, apical induction of leaky gut cellular model ([1]; 1× dose): increase TEER; Lucifer yellow, apical induction of leaky gut cellular model ([1]; 5× dose): decrease Lucifer yellow; TEER, apical induction of leaky gut cellular model ([1]; 5× dose): increase TEER; IL-8 production by HT29 cells (HT29 cells; 5× dose): increase IL-8 production
